{"source": "patent US20180049996A1", "about": "“THERAPEUTIC AGENT FOR CHRONIC RESPIRATORY DISEASE AND COMPOSITION FOR INHIBITING CARDIAC FIBROSIS” (NIPPON HYPOX LABORATORIES INCORPORATED, priority 2015, published 2018)", "key": {"[1]": {"test_system": "Myocardial Disorder Induced by Doxorubicin", "assay": "Histopathologic examination of the hearts (light microscope), myocardial disorder induced by doxorubicin", "type": "in vivo, female SD rats", "conditions": "for Severity score: Cell infiltration in interstitial tissue / Severity score: Degeneration of myocardial cells / Severity score: Loss and disorganization of myocardial fibers / Severity score: Loss of intercalated discs / Severity score: Loss of striations / Severity score: Vacuolation of myocardial fibers: Test group 2: doxorubicin 13 mg/kg + HTHQ 50 mg/kg; for lesions of cardiac tissue (light microscope): Test group 2: doxorubicin + HTHQ 50 mg/kg, compared to test group 1", "protocol": "Doxorubicin is used to produce disease-model animals of cardiomyopathy. The doxorubicin and 2,3,5-trimethylhydroquinone-1-hexyl ether (HTHQ) as the hydroquinone derivative represented by the general formula (1) described above of the present invention were simultaneously administered to female SD rats of 4 week old after birth to examine the effect of the action. The test groups consisted of the control group to which sterile saline was administered; test group 1 to which doxorubicin (13 mg/kg body weight) alone was administered; test group 2 to which doxorubicin (13 mg/kg body weight) and HTHQ (50 mg/kg body weight) were administered in combination; and test group 3 to which doxorubicin (13 mg/kg body weight), HTHQ (50 mg/kg body weight) and recombinant human erythropoietin (400 IU/kg body weight) were administered in combination. […] The test group 3 is used to confirm the presence or absence of the inhibitory effect brought about by combining HTHQ and rHuEPO on myocardial disorder.\nDoxorubicin was orally administered in a single dose to the rats in test groups 1 to 3. 2,3,5-trimethylhydroquinone-1-hexyl ether (HTHQ) was orally administered to the rats in test groups 2 and 3 twice in total: 3 days before the administration of doxorubicin and on the day of the administration. Recombinant human erythropoietin was daily administered to the rats in test group 3 starting from 3 days before the administration of doxorubicin by intravenous injection. The number of animals in each group was 16. 8 animals of each group were sacrificed after collecting blood on day 7 and 14 after the administration of doxorubicin, and the autopsy of the hearts, the calculation of the relative weights of the hearts, the histopathologic examination of the hearts and the hematological examination were conducted.\n“−” indicates “not found”, “+” indicates “mild”, “++” indicates “moderate”, and “+++” indicates “severe” in severity scores of the table."}, "sputum excretion": {"test_system": "sputum excretion", "assay": "Sputum excretion action (phenol red excretion from trachea sections, method of Engler et al.)", "type": "in vivo, male ICR mice", "conditions": "relative to negative control", "protocol": "The hydroquinone derivative of the present invention was orally administered to 8 week old male ICR mice in a single dose, and the sputum excretion action was evaluated according to the method of Engler et al. (Engler H, Szelenyi I, J.Pharmacol. Moth. 11, 151-157, 1984).\nSpecifically, the test was conducted as follows. The test material was orally administered to the mice in the control group and the test groups, i.e., an aqueous solution of 2% gum arabic was administered to the mice in the negative control group, and 2,3,5-trimethylhydroquinone-1-hexyl ether (HTHQ), the test substance, was orally administered to the mice in the HTHQ-administered groups at 100 mg/kg body weight, 200 mg/kg body weight and 400 mg/kg body weight, respectively. Ambroxol (a product from Sigma-Aldrich) was orally administered to the mice in the ambroxol administered group at 250 mg/kg body weight. Here, ambroxol is a substance having expectoration action and has been selected as a positive control substance. 30 minutes after the oral administration of the test material, saline in which phenol red (a product from Sigma-Aldrich) was dissolved at a concentration of 0.05 g/mL was intraperitoneally administered at 15 mL/kg. Then, 30 minutes after the administration of phenol red, the mice were euthanized by inhalation of carbon dioxide, and the tracheae were extirpated. Given sites of the extirpated tracheae were cut into sections of fixed size to obtain trachea sections. The obtained trachea sections were added to centrifugation tubes, and 1 mL of saline was added there, and the mixture was sonicated using a ultrasonic washing machine for 15 minutes. After the centrifugation of 5 minutes at 10000 rpm, 0.5 mL of a upper layer solution was dispensed to the centrifugation tubes and 0.05 mL of 1 N sodium hydroxide was added to the tubes. After stirring with a vortex mixer, 0.2 mL of a sample was dispensed to a 96 well plate, and absorbance was measured at 546 nm using a micro plate reader (a product from BioTek Instruments, Inc). The amounts of phenol red excreted from the trachea sections of the mice in the control group and test groups were calculated by extrapolating the measured absorbance to the standard curve based on the absorbance of phenol red reference standard ([…], 2.3 and 1.2 ng/mL). The amounts of phenol red excreted from the trachea sections were substituted in the following formula to calculate the sputum excretion ability of the test material. The formula to calculate the sputum excretion ability is as follows: “sputum excretion ability(%)={(A/B)−1}×100” wherein A is the amounts of phenol red of the test material administered groups (an average) and B is the amount of phenol red of the negative control group (an average)."}}}
{"smiles": "CCCCCCOc1cc(C)c(O)c(C)c1C", "note": "[HTHQ, 2,3,5-trimethylhydroquinone-1-hexyl ether]", "values": [{"measurement": "Severity score: Cell infiltration in interstitial tissue", "setting": "[1]; Day 7 after administration", "result": "−"}, {"measurement": "Severity score: Degeneration of myocardial cells", "setting": "[1]; Day 7 after administration", "result": "+"}, {"measurement": "Severity score: Loss and disorganization of myocardial fibers", "setting": "[1]; Day 7 after administration", "result": "+"}, {"measurement": "Severity score: Loss of intercalated discs", "setting": "[1]; Day 7 after administration", "result": "+"}, {"measurement": "Severity score: Loss of striations", "setting": "[1]; Day 7 after administration", "result": "+"}, {"measurement": "Severity score: Vacuolation of myocardial fibers", "setting": "[1]; Day 7 after administration", "result": "−"}, {"measurement": "Severity score: Cell infiltration in interstitial tissue", "setting": "[1]; Day 14 after administration", "result": "−"}, {"measurement": "Severity score: Degeneration of myocardial cells", "setting": "[1]; Day 14 after administration", "result": "+"}, {"measurement": "Severity score: Loss and disorganization of myocardial fibers", "setting": "[1]; Day 14 after administration", "result": "+"}, {"measurement": "Severity score: Loss of intercalated discs", "setting": "[1]; Day 14 after administration", "result": "+"}, {"measurement": "Severity score: Loss of striations", "setting": "[1]; Day 14 after administration", "result": "+"}, {"measurement": "Severity score: Vacuolation of myocardial fibers", "setting": "[1]; Day 14 after administration", "result": "+"}, {"measurement": "lesions of cardiac tissue (light microscope)", "setting": "[1]; day 7", "result": "alleviated"}, {"measurement": "lesions of cardiac tissue (light microscope)", "setting": "[1]; day 14", "result": "also alleviated"}, {"measurement": "sputum excretion ability", "setting": "sputum excretion; HTHQ 100 mg/kg oral single dose", "result": 24.6, "unit": "%"}, {"measurement": "sputum excretion ability", "setting": "sputum excretion; HTHQ 200 mg/kg oral single dose, significant increase", "result": 30.0, "unit": "%"}, {"measurement": "sputum excretion ability", "setting": "sputum excretion; HTHQ 400 mg/kg oral single dose, significant increase", "result": 36.2, "unit": "%"}]}
